Source: patent US8993574B2, “Pyrrole antifungal agents” (F2G Ltd, priority 2008, dated 2015)
In brackets after ≈: the same amount, converted by molar mass.

Legend:
Assay type in all cases: cell-based
Aspergillus terreus AT49 [1] = assay: MIC, YAG medium; details: 24 h at 35° C, MIC banded into grades; for MIC: Aspergillus terreus, read-out: MIC grade, A. terreus 49
Description: (§1) Between 1 and 5 mgs of compound were accurately weighed out into a sterile Eppendorf tube. The compound was dissolved in DMSO to give a solution containing 5 mg/mL. Tubes were stored at −20° C. until required.
(§2) On the day of testing thawed solutions were vortex mixed to ensure homogeneity. 30 μL of solution was removed and added to 570 μL of sterile water in a separate sterile Eppendorf. The thoroughly mixed solution was used to prepare a series of doubling dilutions in water, in a deep well plate. Thirteen replicate plates were prepared using a Minitrak by aspirating 20 μL from each well into eleven clear polystyrene 96 well plates.
(§3) Spores of Aspergillus spp. (Aspergillus fumigatus [two strains], Aspergillus terreus [two strains], Aspergillus niger and Aspergillus flavus) were harvested from cultures grown on Sabarauds agar for 5 days, and resuspended in PBS/Tween 80 to approx 1×10^7 cfu/mL. Each organism suspension was diluted in YAG medium (1% glucose, 1% ammonium chloride and 0.5% yeast extract) to 0.5−2×10^4 cfu/mL. 80 μL of an organism suspension was added to each well of the plate containing drug dilutions.
(§4) This produced MIC plates with a drug range 50-0.05 mg/L and organism inocula of 1−2×10^4 cfu/mL for Aspergillus spp. All plates were incubated for 24 h at 35° C. Growth was assessed by monitoring the optical density at 485 nm for each well. The MIC of a compound is the lowest drug concentration that inhibits growth of an organism by >70% compared with a drug free control. MICs are recorded as mg/L. In cases where the MIC of an organism is […] mg/L the MIC is repeated using a concentration range of 0.5-0.0005 mg/L.
(§5) The following organisms were tested: Aspergillus flavus, Aspergillus fumigatus AF293 and AF210, Aspergillus niger, Aspergillus terreus AT4 and AT49, Candida albicans, Candida glabrata, Candida krusei, Candida parapsilosis and Candida tropicalis.

Aspergillus terreus AT4 [2] = assay: MIC, YAG medium; details: 24 h at 35° C, MIC banded into grades; for MIC: Aspergillus terreus, read-out: MIC grade, A. terreus
Description: as §1, §2, §3, §4, §5

[3] = system: Aspergillus fumigatus AF293; assay: MIC, YAG medium; details: 24 h at 35° C, MIC banded into grades; for MIC: Aspergillus fumigatus, read-out: MIC grade, A. fumigatus
Description: as §1, §2, §3, §4, §5

Aspergillus niger [4] = assay: MIC, YAG medium; details: 24 h at 35° C, MIC banded into grades; for MIC: Aspergillus niger, read-out: MIC grade, A. niger
Description: as §1, §2, §3, §4, §5

Aspergillus flavus [5] = assay: MIC, YAG medium; details: 24 h at 35° C, MIC banded into grades; for MIC: Aspergillus flavus, 24 h, read-out: MIC grade, A. flavus
Description: as §1, §2, §3, §4, §5

[6] = system: Aspergillus fumigatus AF210; assay: MIC, YAG medium; details: 24 h at 35° C, MIC banded into grades; for MIC: Aspergillus fumigatus, read-out: MIC grade, A. fumigatus 210
Description: as §1, §2, §3, §4, §5

Aspergillus terreus AT49 [7] = assay: MIC, RPMI medium; details: for MIC: Aspergillus terreus, AT49, MIC banded into grades, read-out: MIC grade, A. terreus 49
Description: as §1, §2
(§6) Assays were also performed in RPMI medium for both Aspergillus spp. (strains described above) and Candida spp. (Candida albicans, Candida glabrata, Candida krusei, Candida parapsilosis and Candida tropicalis). To perform MIC tests in this medium, dilutions of compounds are prepared in microtitre plates as described above. Fungal strains to be tested are grown and harvested in an identical manner to that described above, and each organism suspension was diluted in RPMI medium, containing 2% glucose and 0.135 M MOPS buffer (pH 7.0) to 0.5-2×10^4 cfu/mL, rather than in YAG medium. 80 μL of an organism suspension was added to each well of the plate containing drug dilutions.
(§7) This produced MIC plates with a drug range 50-0.05 mg/L and organism inocula of 1−2×10^4 cfu/mL. All plates were incubated for 24-48 h at 35° C. Growth was assessed by monitoring the optical density at 485 nm for each well. The MIC of a compound is the lowest drug concentration that inhibits growth of an organism by >80% compared with a drug free control.
as §5

Aspergillus terreus AT4 [8] = assay: MIC, RPMI medium; details: for MIC: Aspergillus terreus, AT4, MIC banded into grades, read-out: MIC grade, A. terreus
Description: as §1, §2, §6, §7, §5

[9] = system: Aspergillus fumigatus AF293; assay: MIC, RPMI medium; details: for MIC: Aspergillus fumigatus, AF293, MIC banded into grades, read-out: MIC grade, A. fumigatus
Description: as §1, §2, §6, §7, §5

Aspergillus niger [10] = assay: MIC, RPMI medium; details: MIC banded into grades; for MIC: Aspergillus niger, read-out: MIC grade, A. niger
Description: as §1, §2, §6, §7, §5

Aspergillus flavus [11] = assay: MIC, RPMI medium; details: MIC banded into grades; for MIC: Aspergillus flavus, read-out: MIC grade, A. flavus
Description: as §1, §2, §6, §7, §5

[12] = system: Aspergillus fumigatus AF210; assay: MIC, RPMI medium; details: for MIC: Aspergillus fumigatus, AF210, MIC banded into grades, read-out: MIC grade, A. fumigatus 210
Description: as §1, §2, §6, §7, §5

| SMILES | MIC (Aspergillus terreus AT49 [1]) [µg/mL] | MIC (Aspergillus terreus AT4 [2]) [µg/mL] | MIC [3] [µg/mL] | MIC (Aspergillus niger [4]) [µg/mL] | MIC (Aspergillus flavus [5]) [µg/mL] | MIC [6] [µg/mL] | MIC (Aspergillus terreus AT49 [7]) [µg/mL] | MIC (Aspergillus terreus AT4 [8]) [µg/mL] | MIC [9] [µg/mL] | MIC (Aspergillus niger [10]) [µg/mL] | MIC (Aspergillus flavus [11]) [µg/mL] | MIC [12] [µg/mL] | further results |
| --- | --- | --- | --- | --- | --- | --- | --- | --- | --- | --- | --- | --- | --- |
| COCCc1cc(C)n(-c2ccccc2)c1C(=O)C(=O)Nc1ccc(N2CCN(c3cc(C)cc(C)n3)CC2)cc1 [Example 80, N-{4-[4-(4,6-Dimethyl-pyridin-2-yl)-piperazin-1-yl]-phenyl}-2-[3-(2-methoxy-ethyl)-5-methyl-1-phenyl-1H-pyrrol-2-yl]-2-oxo-acetamide] | > 10 | > 10 | > 10 | > 10 | > 10 | > 10 | > 10 | > 10 | > 10 | > 10 | > 10 | > 10 |  |
| Cc1cc(C)nc(N2CCN(c3ccc(NC(=O)C(=O)c4cc(-c5ccccc5)cn4C)cc3)CC2)c1 [Example 46, N-{4-[4-(4,6-Dimethyl-pyridin-2-yl)-piperazin-1-yl]-phenyl}-2-(1-methyl-4-phenyl-1H-pyrrol-2-yl)-2-oxo-acetamide] | < 1 | > 10 | 1 to 10 (≈ 2.03 to 20.3 µM) | > 10 | < 1 | < 1 | 1 to 10 (≈ 2.03 to 20.3 µM) | 1 to 10 (≈ 2.03 to 20.3 µM) | > 10 | > 10 | > 10 | > 10 |  |
| CCCc1cc(-c2ccccc2)c(C(=O)C(=O)Nc2ccc(N3CCN(c4cc(C)cc(C)n4)CC3)cc2)n1C [Example 124, N-{4-[4-(4,6-Dimethyl-pyridin-2-yl)-piperizin-1-yl]-phenyl}-2-[1-methyl-3-phenyl-5-propyl-1H-pyrrol-2-yl)-2-oxo-acetamide] |  |  |  |  |  |  |  |  |  |  |  |  | MIC grade, A. terreus 49 (Aspergillus terreus AT49 [1]): 3 (A grade of 3 represents an MIC of less than 1 mg/L); MIC grade, A. terreus (Aspergillus terreus AT4 [2]): 3 (A grade of 3 represents an MIC of less than 1 mg/L); MIC grade, A. fumigatus [3]: 3 (A grade of 3 represents an MIC of less than 1 mg/L); MIC grade, A. niger (Aspergillus niger [4]): 3 (A grade of 3 represents an MIC of less than 1 mg/L); MIC grade, A. flavus (Aspergillus flavus [5]): 3 (A grade of 3 represents an MIC of less than 1 mg/L); MIC grade, A. fumigatus 210 [6]: 3 (A grade of 3 represents an MIC of less than 1 mg/L); MIC grade, A. terreus 49 (Aspergillus terreus AT49 [7]; MIC banded into grades): 2 (A grade of 2 represents an MIC of from 1 to 10 mg/L); MIC grade, A. terreus (Aspergillus terreus AT4 [8]; MIC banded into grades): 2 (A grade of 2 represents an MIC of from 1 to 10 mg/L); MIC grade, A. fumigatus ([9]; MIC banded into grades): 2 (A grade of 2 represents an MIC of from 1 to 10 mg/L); MIC grade, A. niger (Aspergillus niger [10]): 1 (a grade of 1 represents an MIC of greater than 10 mg/L); MIC grade, A. flavus (Aspergillus flavus [11]): 2 (A grade of 2 represents an MIC of from 1 to 10 mg/L); MIC grade, A. fumigatus 210 ([12]; MIC banded into grades): 2 (A grade of 2 represents an MIC of from 1 to 10 mg/L) |
| Cc1cc(C)nc(N2CCN(c3ccc(NC(=O)C(=O)c4c(-c5ccccc5)cc(C)n4C)cc3COCCN(C)C)CC2)c1 [Example 17, N-{3-(2-Dimethylamino-ethoxymethyl)-4-[4-(4,6-dimethyl-pyridin-2-yl)-piperazin-1-yl]-phenyl}-2-(1,5-dimethyl-3-phenyl-1H-pyrrol-2-yl)-2-oxo-acetamide] | 1 to 10 (≈ 1.64 to 16.4 µM) | 1 to 10 (≈ 1.64 to 16.4 µM) | 1 to 10 (≈ 1.64 to 16.4 µM) | 1 to 10 (≈ 1.64 to 16.4 µM) | 1 to 10 (≈ 1.64 to 16.4 µM) | 1 to 10 (≈ 1.64 to 16.4 µM) | > 10 | > 10 | > 10 | > 10 | > 10 | > 10 |  |
| COCC=CCn1c(C)cc(-c2ccccc2)c1C(=O)C(=O)Nc1ccc(N2CCN(c3cc(C)cc(C)n3)CC2)cc1 [Example 141, N-{4-[4-(4,6-Dimethyl-pyridin-2-yl)-piperazin-1-yl]-phenyl}-2-[1-(4-methoxy-but-2-enyl)-5-methyl-3-phenyl-1H-pyrrol-2-yl]-2-oxo-acetamide] | 1 to 10 (≈ 1.73 to 17.3 µM) | 1 to 10 (≈ 1.73 to 17.3 µM) | < 1 | 1 to 10 (≈ 1.73 to 17.3 µM) | 1 to 10 (≈ 1.73 to 17.3 µM) | < 1 | > 10 | > 10 | > 10 | > 10 | > 10 | > 10 |  |
| Cc1cc(-c2ccccc2)c(C(=O)C(=O)Nc2ccc(N3CCN(Cc4ccccc4)CC3)cc2)n1C [Example 144, N-[4-(4-Benzyl-piperazin-1-yl)-phenyl]-2-(1,5-dimethyl-3-phenyl-1H-pyrrol-2-yl)-2-oxo-acetamide] | < 1 | < 1 | < 1 | < 1 | < 1 | < 1 | < 1 | < 1 | < 1 | < 1 | < 1 | < 1 |  |
| Cc1cc(-c2ccccc2)c(C(=O)C(=O)Nc2ccc(-c3ncco3)cc2)n1C [Example 147, 2-(1,5-Dimethyl-3-phenyl-1H-pyrrol-2-yl)-N-(4-oxazol-2-yl-phenyl)-2-oxo-acetamide] | < 1 | < 1 | < 1 | < 1 | < 1 | < 1 | < 1 | < 1 | < 1 | < 1 | < 1 | < 1 |  |

Second part, led by results:

| MIC (Aspergillus terreus AT49 [1]) [µg/mL] | MIC (Aspergillus terreus AT4 [2]) [µg/mL] | MIC [3] [µg/mL] | MIC (Aspergillus niger [4]) [µg/mL] | MIC (Aspergillus flavus [5]) [µg/mL] | MIC [6] [µg/mL] | MIC (Aspergillus terreus AT49 [7]) [µg/mL] | MIC (Aspergillus terreus AT4 [8]) [µg/mL] | MIC [9] [µg/mL] | MIC (Aspergillus niger [10]) [µg/mL] | MIC (Aspergillus flavus [11]) [µg/mL] | MIC [12] [µg/mL] | SMILES | further results |
| --- | --- | --- | --- | --- | --- | --- | --- | --- | --- | --- | --- | --- | --- |
| 1 to 10 (≈ 1.92 to 19.2 µM) | < 1 | < 1 | < 1 | 1 to 10 (≈ 1.92 to 19.2 µM) | < 1 | < 1 | < 1 | < 1 | 1 to 10 (≈ 1.92 to 19.2 µM) | 1 to 10 (≈ 1.92 to 19.2 µM) | < 1 | COCCn1c(C)cc(-c2ccccc2)c1C(=O)C(=O)Nc1ccc(N2CCN(CC(C)C)CC2)cc1F [Example 110, N-[2-Fluoro-4-(4-isobutyl-piperazin-1-yl)-phenyl]-2-[1-(2-methoxy-ethyl)-5-methyl-3-phenyl-1H-pyrrol-2-yl]-2-oxo-acetamide] |  |
| < 1 | < 1 | < 1 | < 1 |  | < 1 | > 10 | > 10 | < 1 | < 1 | > 10 | < 1 | COCCn1c(C)cc(-c2ccccc2)c1C(=O)C(=O)Nc1ccc(N2CCN(c3cc(C)cc(C)n3)CC2)cc1Cl [Example 26, N-{2-Chloro-4-[4-(4,6-dimethyl-pyridin-2-yl)-piperazin-1-yl]-phenyl}-2-[1-(2-methoxy-ethyl)-5-methyl-3-phenyl-1H-pyrrol-2-yl]-2-oxo-acetamide] | MIC grade, A. flavus (Aspergillus flavus [5]): 1 (a grade of 1 represents an MIC of greater than 10 mg/L) |
| 1 to 10 (≈ 1.72 to 17.2 µM) | 1 to 10 (≈ 1.72 to 17.2 µM) | 1 to 10 (≈ 1.72 to 17.2 µM) | 1 to 10 (≈ 1.72 to 17.2 µM) | 1 to 10 (≈ 1.72 to 17.2 µM) | < 1 | > 10 | > 10 | > 10 | > 10 | > 10 | > 10 | CCCOCCn1c(C)cc(-c2ccccc2)c1C(=O)C(=O)Nc1ccc(N2CCN(c3cc(C)cc(C)n3)CC2)cc1 [Example 140, N-{4-[4-(4,6-Dimethyl-pyridin-2-yl)-piperazin-1-yl]-phenyl}-2-[5-methyl-3-phenyl-1-(2-propoxy-ethyl)-1H-pyrrol-2-yl]-2-oxo-acetamide] |  |
